{"source": "ChEMBL document CHEMBL3232765", "about": "“Anti-mycobacterial activity of 1,3-diaryltriazenes” (Eur J Med Chem, 2014)", "note": "pIC50: −log10 of the molar value.", "data": [{"tested_on": "Mycobacterium tuberculosis", "test": "Antimycobacterial activity against Mycobacterium tuberculosis H37Rv after 6 days by luciferase reporter gene assay", "format": "functional, organism-based", "settings": "144 h", "units": {"IC90": "µM", "IC99": "µM"}, "values": [{"smiles": "COc1ccc(/C=C/C(=O)N(/N=N/c2ccc(Cl)c(C(F)(F)F)c2)c2ccc(Cl)c(C(F)(F)F)c2)c(OC)c1", "pIC50": 4.28, "IC90": 80.8, "IC99": 84.4}, {"smiles": "FC(F)(F)c1cc(Cl)ccc1/N=N/Nc1ccc(Cl)cc1C(F)(F)F", "pIC50": 4.03, "IC90": "> 100", "IC99": "> 100"}, {"smiles": "Fc1ccc(C(F)(F)F)cc1/N=N/Nc1cc(C(F)(F)F)ccc1F", "pIC50": 4.23, "IC90": "> 100", "IC99": "> 100"}, {"smiles": "NNC(=O)c1ccncc1", "note": "[ISONIAZID]", "pIC50": 7.40, "IC90": 0.11, "IC99": 0.13}, {"smiles": "N#Cc1cc(/N=N/Nc2ccc(F)c(C#N)c2)ccc1F", "pIC50": "< 4.00", "IC90": "> 100", "IC99": "> 100"}, {"smiles": "Clc1ccc(/N=N/Nc2ccc(Cl)cc2Cl)c(Cl)c1", "pIC50": "< 4.00", "IC90": "> 100", "IC99": "> 100"}, {"smiles": "COc1ccc(/C=C/C(=O)N(/N=N/c2cc(C(F)(F)F)ccc2Cl)c2cc(C(F)(F)F)ccc2Cl)c(OC)c1", "pIC50": 4.14, "IC90": "> 100", "IC99": "> 100"}, {"smiles": "Fc1ccc(/N=N/Nc2ccc(F)cc2C(F)(F)F)c(C(F)(F)F)c1", "pIC50": 4.07, "IC90": "> 100", "IC99": "> 100"}, {"smiles": "COc1cc(/C=C/C(=O)N(/N=N/c2ccc(Cl)c(C(F)(F)F)c2)c2ccc(Cl)c(C(F)(F)F)c2)cc(OC)c1", "pIC50": 4.15, "IC90": "> 100", "IC99": "> 100"}, {"smiles": "COc1ccc(/C=C/C(=O)N(/N=N/c2ccc(Cl)cc2C(F)(F)F)c2ccc(Cl)cc2C(F)(F)F)c(OC)c1", "pIC50": 4.08, "IC90": "> 100", "IC99": "> 100"}, {"smiles": "FC(F)(F)c1ccc(Cl)c(N=NNc2cc(C(F)(F)F)ccc2Cl)c1", "pIC50": 4.01, "IC90": "> 100", "IC99": "> 100"}, {"smiles": "N#Cc1c(F)cccc1/N=N/Nc1cccc(F)c1C#N", "pIC50": 4.21, "IC90": "> 100", "IC99": "> 100"}]}]}
